According to patent publication US20240148707A1, “MODULATION OF DRUG-DRUG INTERACTIONS OF VADADUSTAT” (Akebia Therapeutics, Inc., priority 2021, published 2024):
Like-named read-outs stand apart in the source and are kept apart here.

Experiments:
Assay type in all cases: in vivo, human
[1] = [14C]-labeled Compound 1 metabolism and excretion study in healthy adult males; conditions: healthy adult male (6), single oral 650 mg [14C]-labeled Compound 1
Description: The urinary excretion rate of this drug and acyl glucuronide is less than 1% of the total radioactivity.

[2] = Phase I drug-drug interaction study with cyclosporine (Part 1, Arm 1)
Protocol: (§1) A phase I, open-label, 2-part study was conducted in healthy male and female subjects to evaluate the potential for interaction of cyclosporine (Part 1, Arm 1), probenecid (Part 1, Arm 2), and rifampin (Part 2) with vadadustat.
Subjects were randomized in a 1:1 ratio to 1 of 2 dosing sequences (A:B or B:A) to receive vadadustat 300 mg alone and vadadustat 300 mg in combination with oral cyclosporine 500 mg in a crossover design. Study drugs were administered in the morning after at least a 10-hour overnight fast. Subjects remained fasted for at least 4 hours post-dose. • Treatment A: a single oral dose of vadadustat (300 mg) administered as 2×150 mg tablets. • Treatment B: a single oral dose of vadadustat (300 mg) administered as 2×150 mg tablets co-administered with a single oral dose of cyclosporine (500 mg) administered as 5×100 mg capsules.
On the morning of Day 1, subjects received the first treatment (A or B). Following a 7-day washout, subjects crossed over to Period 2 to receive the second treatment of the dosing sequence (A or B) on Day 8.
On each dosing day (Day 1 and Day 8) blood samples for PK analysis were collected up to 48 hours post-dose. Subjects were discharged from the clinical research unit (CRU) on the morning of Day 10, after the final 48-hour post-dose PK sample had been collected. A follow-up phone call was conducted 30 days±2 days after the final dose.

[3] = Phase I drug-drug interaction study with probenecid (Part 1, Arm 2); conditions: for increase in exposure (AUC): administered with multiple doses of probenecid vs vadadustat alone
Protocol: as §1
On the morning of Day 1, subjects received a single oral dose of vadadustat (300 mg) as 2×150 mg tablets after at least a 10-hour overnight fast and remained fasted for at least 4 hours post-dose. Following a 2-day washout (Days 1 to 2), subjects received 1 oral probenecid 500 mg tablet Q12 h for 4 days (Days 3 to 6). On days that probenecid was administered alone (Days 3, 4, and 6), probenecid was administered in a fasted state 1 hour prior to a standard breakfast and 1 hour prior to an evening meal or snack. On Day 5, probenecid was co-administered with a single dose of vadadustat (300 mg as 2×150 mg tablets) following at least a 10-hour fast. Subjects remained fasted for at least 4 hours after dosing.
On days vadadustat was administered (Day 1 and Day 5), blood samples for PK analysis were collected up to 48 hours postdose. In addition, on vadadustat dosing days, pooled urine samples were collected up to 24 hours post-dose. Subjects were discharged from the CRU on the morning of Day 7, after the final 48-hour post-dose PK sample had been collected. A follow-up phone call was conducted 30 days±2 days after the final dose.

[4] = Phase 1 drug-drug interaction study, vadadustat as perpetrator with adefovir (Arm 2); conditions: for AUC(0-inf) / AUC(0-t) / Cmax: both sexes, human, plasma
Protocol: A Phase 1, open-label, fixed sequence study was conducted in healthy male and female subjects to evaluate vadadustat as a perpetrator of DDIs with digoxin and/or adefovir.
On the morning of Day 1, subjects received a single oral dose of adefovir 10 mg after at least a 10-hour overnight fast. Subjects remained fasted for at least 4 hours after dosing. Following a 3-day washout period, subjects received vadadustat 600 mg QD beginning on Day 4 for 5 days (Days 4-8). When administered alone, vadadustat was administered in the morning at least 30 minutes prior to breakfast. On Day 7 subjects received their morning dose of vadadustat 600 mg along with a single oral dose of adefovir 10 mg after at least a 10-hour overnight fast.

[5] = Phase 1 drug-drug interaction study, vadadustat as perpetrator with digoxin (Arm 1)
Protocol: A Phase 1, open-label, fixed sequence study was conducted in healthy male and female subjects to evaluate vadadustat as a perpetrator of DDIs with digoxin and/or adefovir. […] Subjects remained fasted for at least 4 hours after dosing. Following a 12-day washout period, subjects received vadadustat 600 mg QD beginning on Day 13 for 7 days (Days 13-19).

[6] = vadadustat 300 mg + cyclosporine 500 mg, single oral doses, fasted
[7] = vadadustat 300 mg alone, single oral dose, fasted
[8] = vadadustat 300 mg with vs without cyclosporine 500 mg
[9] = vadadustat 300 mg single dose + probenecid 500 mg Q12h (multiple doses), fasted
[10] = vadadustat 300 mg with vs without probenecid 500 mg Q12h
[11] = adefovir 10 mg with vs without vadadustat 600 mg QD
[12] = digoxin 0.5 mg single dose with vadadustat 600 mg QD (Day 16)
[13] = digoxin 0.5 mg with vs without vadadustat 600 mg QD

## O=C(O)CNC(=O)c1ncc(-c2cccc(Cl)c2)cc1O[C@@H]1O[C@H](C(=O)O)[C@@H](O)[C@H](O)[C@H]1O [Vadadustat-O-Glucuronide]
[1]
  share of the total radioactivity (AUC0-∞) in plasma: about 15%
[2]; [6]
  AUCinf, geometric LSM, Treatment V + C: 39210 ng·h/mL
  AUClast, geometric LSM, Treatment V + C: 38130 ng·h/mL
  Cmax, geometric LSM, Treatment V + C: 3900 ng/mL
[2]; [7]
  AUCinf, geometric LSM, Treatment V: 34480 ng·h/mL
  AUClast, geometric LSM, Treatment V: 33430 ng·h/mL
  Cmax, geometric LSM, Treatment V: 4500 ng/mL
[2]; [8]
  AUCinf, Ratio (V + C)/V: 113.74%
  AUClast, Ratio (V + C)/V: 114.04%
  Cmax, Ratio (V + C)/V: 86.63%
[2]; vadadustat in combination with cyclosporine
  changes in the Cmax and AUC values: no clinically relevant changes
[3]; listed as vadadustat-O-glucuronide
  increase in exposure (AUC): about 2 fold
[3]; listed as vadadustat-Oglucuronide
  increase in exposure (AUC): ~2 fold
[3]; in combination with probenecid
  change of Cmax values: relatively unchanged
  urinary excretion: decreased
[3]; [7]
  AUCinf, geometric LSM, Treatment V: 38240 ng·h/mL
  AUClast, geometric LSM, Treatment V: 37410 ng·h/mL
  Cmax, geometric LSM, Treatment V: 5590 ng/mL
[3]; [9]
  AUCinf, geometric LSM, Treatment V + P: 86580 ng·h/mL
  AUClast, geometric LSM, Treatment V + P: 83810 ng·h/mL
  Cmax, geometric LSM, Treatment V + P: 6170 ng/mL
[3]; [10]
  AUCinf, Ratio (V + P)/V: 226.39%
  AUClast, Ratio (V + P)/V: 224.05%
  Cmax, Ratio (V + P)/V: 110.38%

## Nc1ncnc2c1ncn2CCOCP(=O)(O)O [adefovir]
[4]; [11]
  AUCinf, Ratio (V + A)/A: 114.70%
  AUClast, Ratio (V + A)/A: 114.74%
  Cmax, Ratio (V + A)/A: 95.15%
[4]; adefovir administered with vadadustat vs adefovir alone
  systemic exposure to adefovir: relatively unchanged
[4]; oral, adefovir 10 mg single dose with vadadustat 600 mg QD (Day 7), read-out: AUCinf, geometric LSM, Treatment V + A
  AUC(0-inf): 230 ng·h/mL
[4]; oral, adefovir 10 mg single dose with vadadustat 600 mg QD (Day 7), read-out: AUClast, geometric LSM, Treatment V + A
  AUC(0-t): 227 ng·h/mL
[4]; oral, adefovir 10 mg single dose with vadadustat 600 mg QD (Day 7), read-out: Cmax, geometric LSM, Treatment V + A
  Cmax: 17.1 ng/mL
[4]; adefovir 10 mg alone, single oral dose, fasted, read-out: AUCinf, geometric LSM, Treatment A
  AUC(0-inf): 201 ng·h/mL
[4]; adefovir 10 mg alone, single oral dose, fasted, read-out: AUClast, geometric LSM, Treatment A
  AUC(0-t): 198 ng·h/mL
[4]; adefovir 10 mg alone, single oral dose, fasted, read-out: Cmax, geometric LSM, Treatment A
  Cmax: 17.9 ng/mL

## C[C@H]1O[C@@H](O[C@H]2[C@@H](O)C[C@H](O[C@H]3[C@@H](O)C[C@H](O[C@H]4CC[C@@]5(C)[C@H](CC[C@@H]6[C@@H]5C[C@@H](O)[C@]5(C)[C@@H](C7=CC(=O)OC7)CC[C@]65O)C4)O[C@@H]3C)O[C@@H]2C)C[C@H](O)[C@@H]1O [digoxin]
[5]; both sexes, human, plasma, oral, digoxin 0.5 mg single dose with vadadustat 600 mg QD (Day 16), read-out: AUClast, geometric LSM, Treatment V + D
  AUC(0-t): 31.7 ng·h/mL
[5]; both sexes, human, plasma, digoxin 0.5 mg alone, single oral dose, fasted, read-out: AUCinf, geometric LSM, Treatment D
  AUC(0-inf): 36.3 ng·h/mL
[5]; both sexes, human, plasma, digoxin 0.5 mg alone, single oral dose, fasted, read-out: AUClast, geometric LSM, Treatment D
  AUC(0-t): 34.6 ng·h/mL
[5]; digoxin 0.5 mg alone, single oral dose, fasted
  Cmax, geometric LSM, Treatment D: 2.46 ng/mL
[5]; [12]
  AUCinf, geometric LSM, Treatment V + D: 33.19 ng·h/mL
  Cmax, geometric LSM, Treatment V + D: 1.64 ng/mL
[5]; [13]
  AUCinf, Ratio (V + D)/D: 91.37%
  AUClast, Ratio (V + D)/D: 91.49%
  Cmax, Ratio (V + D)/D: 66.92%
[5]; digoxin and vadadustat coadministered vs digoxin alone
  decrease of digoxin Cmax: ~35%
[5]; digoxin following multiple doses of vadadustat vs digoxin alone
  total exposure (AUClast and AUCinf) to digoxin: unchanged
